Results as given in PubChem BioAssay (NCI).
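Each compound was tested at five concentrations against cells in 96-well plates for 48 hours. TGI marks complete inhibition of growth.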

Key:
Experiment in all cases: NCI anticancer screen, dose series, 48 h
PC-3 prostate = system: PC-3 prostate
MALME-3M melanoma = system: MALME-3M melanoma
MCF7 breast = system: MCF7 breast
SNB-75 CNS = system: SNB-75 CNS
SF-268 CNS = system: SF-268 CNS
HT29 colon = system: HT29 colon
SK-OV-3 ovarian = system: SK-OV-3 ovarian
MDA-N = system: MDA-N
HOP-62 NSCLC = system: HOP-62 NSCLC
MDA-MB-435 = system: MDA-MB-435
UACC-257 melanoma = system: UACC-257 melanoma
HCT-15 colon = system: HCT-15 colon
HCC-2998 colon = system: HCC-2998 colon
786-0 renal = system: 786-0 renal
A549 NSCLC = system: A549 NSCLC
HL-60(TB) leukemia = system: HL-60(TB) leukemia
OVCAR-8 ovarian = system: OVCAR-8 ovarian
MOLT-4 leukemia = system: MOLT-4 leukemia
T-47D breast = system: T-47D breast
COLO 205 colon = system: COLO 205 colon
M14 melanoma = system: M14 melanoma
CCRF-CEM leukemia = system: CCRF-CEM leukemia
RXF 393 renal = system: RXF 393 renal
NCI-H23 lung = system: NCI-H23 lung
IGROV1 ovarian = system: IGROV1 ovarian
SW-620 colon = system: SW-620 colon
SR leukemia = system: SR leukemia
OVCAR-4 ovarian = system: OVCAR-4 ovarian
DU-145 prostate = system: DU-145 prostate
SN12C renal = system: SN12C renal
SK-MEL-28 melanoma = system: SK-MEL-28 melanoma
KM12 colon = system: KM12 colon
HOP-92 NSCLC = system: HOP-92 NSCLC
EKVX NSCLC = system: EKVX NSCLC
MDA-MB-231 breast = system: MDA-MB-231 breast
CAKI-1 renal = system: CAKI-1 renal
SK-MEL-5 melanoma = system: SK-MEL-5 melanoma
K-562 leukemia = system: K-562 leukemia
UACC-62 melanoma = system: UACC-62 melanoma
LOX IMVI melanoma = system: LOX IMVI melanoma
RPMI-8226 leukemia = system: RPMI-8226 leukemia
SF-295 CNS = system: SF-295 CNS
TK-10 renal = system: TK-10 renal

Measured: TGI

Fc1ccc(-c2sc(-c3ccsc3)cc2Cc2ccsc2)cc1
> 10 µM: all assays above
